Like-named read-outs stand apart in the source and are kept apart here.
Tested on: patient experiencing an allergic emergency (symptoms of anaphylaxis)
Settings: approximately 5 minutes apart
Experimental: (§1) A patient experiencing an allergic emergency initiates treatment at the onset of shortness of breath by self administering 40 mg of epinephrine free base in a buccal dosage form.
as §1
A patient experiencing an allergic emergency initiates treatment at the onset of shortness of breath by self administering 40 mg of epinephrine free base in a lingual dosage form.

Measured: patient's symptoms of anaphylaxis

CNC[C@H](O)c1ccc(O)c(O)c1 [epinephrine]
relieved: Example 1: 40 mg buccal, second 40 mg buccal, then first auto-injected 0.3 mg dose, outcome within about five minutes after the first injectable dose | Example 2: 40 mg buccal, 60 mg buccal, then two auto-injected 0.3 mg doses, outcome within about five minutes after the second injectable dose | Example 3: 40 mg lingual, 60 mg lingual, then two auto-injected 0.3 mg doses, outcome within about five minutes after the second injectable dose

Reference: patent US20070293582A1, “Epinephrine dosing regimens comprising buccal, lingual or sublingual and injectable dosage forms” (priority 2006, published 2007)
